Data: patent US8163718B2, “Nucleoside analogues containing phosphonate or phosphonamide groups” (Gilead Sciences, Inc., priority 2008, dated 2012)

Columns and labels:
Assay in all cases: Cytostatic cell culture assay (GI50), SRB
Type in all cases: cell-based
A549 = conditions: Homo sapiens, A549, 120 h; 5 days incubation
Text: (§1) The assay is based on quantification of cell counts by a colorimetric detection of the cell associated proteins. The assay relies on the ability of sulforhodamine B (SRB) to bind to protein components of cells that have been fixed to tissue-culture plates by trichloroacetic acid (TCA). SRB is a bright-pink aminoxanthene dye with two sulfonic groups that bind to basic amino-acid residues under mild acidic conditions, and dissociate under basic conditions. As the binding of SRB is stoichiometric, the amount of dye extracted from stained cells is directly proportional to the cell mass.
(§2) Cell lines: All cell lines were obtained from ATCC (Manassas, Va.). Cultivation media containing Glutamax, and trypsin were purchased from Invitrogen (Carlsbad, Calif.). Doxorubicin, Clofarabine, TCA and SRB were from Sigma-Aldrich (St. Louis, Mo.). Gemcitabine was obtained from Moravek Biochemicals (Brea, Calif.)
(§3) • 1. Trypsinize the sub-confluent cells, count them, and adjust the cell concentrations according to the cell counts listed in Table 1. • 2. Distribute the cells into the 96-well plates in 150 μL of media. Incubate the plates overnight in humidified CO2 incubator at 37° C. • 3. Fix one plate of each cell line with TCA. Discard the cultivation media from the plates by flicking them gently and add 100 ul cold 10% (vol/vol) TCA to each well. Incubate the plates at 4 degree refrigerator for 1 hour. Discard TCA from the plates by flicking them gently. Rinse plates four times in a washing basin containing tap water. Store the plates at room temperature. These plates represent cell counts on day zero. • 4. Prepare a set of medium solutions containing various concentrations of tested compounds by making 5-fold serial dilutions in 96-well plate. Add 50 μL of the diluted compounds per well. Include controls with untreated cells and cells treated with doxorubicin, clofarabine and gemcitabine. • 5. Incubate the plates for 5 days at 37° C. • 6. Fix the plates with TCA. Discard the cultivation media from the plates by flicking them gently and add 100 ul cold 10% (vol/vol) TCA to each well. Incubate the plates at 4 degree refrigerator for 1 hour. Discard TCA from the plates by flicking them gently. Rinse plates four times in a washing basin containing tap water. • 7. Remove excess water by tapping the plates face down, gently on a paper towel. Allow the plates to air-dry at room temperature. • 8. Add 100 ul of 0.057% SRB solution in 1% (vol/vol) acetic acid to each well of the plates fixed with TCA on day zero and five. Leave at room temperature for 30 minutes. • 9. Flick the plates gently to discard SRB. Rinse the plates four times with 1% (vol/vol) Acetic Acid. • 10. Store the plates at 37 degree incubator to facilitate faster drying. • 11. Once the plates are completely dry, add 200 ul of 10 mM Tris base solution (pH 10.5) to each well. Leave at room temperature for 30 minutes for SRB to solubilize. • 12. Measure the OD at 500 nm in a microplate reader • 13. Calculate the percentage of cell-growth inhibition using the next formula: % of control cell growth=100×(ODsample−mean ODday0)/(ODneg control−mean ODday0)
(§4) For GI50 determination, plot a dose-response curve between the compound concentration and percent of growth inhibition. GI50 values can be derived by fitting dose-response curves using sigmoidal dose response equation.

NCI-H23 = conditions: Homo sapiens, NCI-H23, 120 h; 5 days incubation
Text: as §1, §2, §3, §4

Hs-578 = conditions: Hs578, 120 h; 5 days incubation
Text: as §1, §2, §3, §4

BT-549 = conditions: Homo sapiens, BT-549, 120 h; 5 days incubation
Text: as §1, §2, §3, §4

PC3 = conditions: Homo sapiens, PC-3, 120 h; 5 days incubation
Text: as §1, §2, §3, §4

HCT-15 = conditions: Homo sapiens, HCT-15, 120 h; 5 days incubation
Text: as §1, §2, §3, §4

Du-145 = conditions: Homo sapiens, DU-145, 120 h; 5 days incubation
Text: as §1, §2, §3, §4

HCT-116 = conditions: Homo sapiens, HCT-116, 120 h; 5 days incubation
Text: as §1, §2, §3, §4

SMILES | GI50 (A549) | GI50 (NCI-H23) | GI50 (BT-549) | GI50 (PC3) | GI50 (HCT-15) | GI50 (Du-145) | GI50 (HCT-116) | GI50 (Hs-578)
CCCCOC(=O)[C@H](Cc1ccccc1)NP(=O)(COCCn1cnc2c(OCCC)nc(N)nc21)N[C@@H](Cc1ccccc1)C(=O)OCCCC [Example 17] | 5 nM | 2 nM | 17 nM | 6 nM | 336 nM | 1 nM | 4 nM | 5 nM
CCCOc1nc(N)nc2c1ncn2CCOCP(=O)(N[C@@H](Cc1ccccc1)C(=O)OCC(C)C)N[C@@H](Cc1ccccc1)C(=O)OCC(C)C [Example 19] | 4 nM | 1 nM | 53 nM | 10 nM | 467 nM | 1 nM | 5 nM | 5 nM
CCCOc1nc(N)nc2c1ncn2CCOCP(=O)(N1CCC[C@H]1C(=O)OCc1ccccc1)N1CCC[C@H]1C(=O)OCc1ccccc1 [Example 20] | 530 nM | 30 nM | 167 nM | 111 nM | 2350 nM | 27 nM | 264 nM | 132 nM
CCCOc1nc(N)nc2c1ncn2CCOCP(=O)(N1CCC[C@H]1C(=O)OC)N1CCC[C@H]1C(=O)OC [Example 22] | 640 nM | 38 nM | 116 nM | 121 nM | > 10000 nM | 35 nM | 194 nM | 82 nM
CCCOC(=O)[C@@H]1CCCN1P(=O)(COCCn1cnc2c(OCCC)nc(N)nc21)N1CCC[C@H]1C(=O)OCCC [Example 23] | 317 nM | 3 nM | 7 nM | 11 nM | 2470 nM | 1 nM | 28 nM | 4 nM
CCCOc1nc(N)nc2c1ncn2CCOCP(=O)(N1CCC[C@H]1C(=O)OC(C)C)N1CCC[C@H]1C(=O)OC(C)C [Example 24] | 3820 nM | 124 nM | 386 nM | 634 nM | > 10000 nM | 138 nM | 979 nM | 452 nM
CCCCOC(=O)[C@@H]1CCCN1P(=O)(COCCn1cnc2c(OCCC)nc(N)nc21)N1CCC[C@H]1C(=O)OCCCC [Example 25] | 450 nM | 2 nM | 15 nM | 16 nM | 1490 nM | 2 nM | 43 nM | 8 nM
CCCCCCOC(=O)[C@@H]1CCCN1P(=O)(COCCn1cnc2c(OCCC)nc(N)nc21)N1CCC[C@H]1C(=O)OCCCCCC [Example 26] | 1050 nM | 9 nM | 67 nM | 81 nM | 1950 nM | 2 nM | 119 nM | 97 nM
CCOC(=O)[C@H](Cc1ccccc1)NP(=O)(COCCn1cnc2c(OC)nc(N)nc21)N[C@@H](Cc1ccccc1)C(=O)OCC [Example 30] | 36 nM | 10 nM | 23 nM | 103 nM | 1900 nM | 3 nM | 27 nM | 17 nM
CCCCOC(=O)[C@H](Cc1ccccc1)NP(=O)(COCCn1cnc2c(OC)nc(N)nc21)N[C@@H](Cc1ccccc1)C(=O)OCCCC [Example 31] | 6 nM | 2 nM | 20 nM | 16 nM | 604 nM | 1 nM | 6 nM | 5 nM

Second part, led by results:

GI50 (A549) | GI50 (NCI-H23) | GI50 (BT-549) | GI50 (PC3) | GI50 (HCT-15) | GI50 (Du-145) | GI50 (HCT-116) | SMILES | GI50 (Hs-578)
736 nM | 92 nM | 1830 nM | 591 nM | > 10000 nM | 67 nM | 1320 nM | CCCOc1nc(N)nc2c1ncn2CCOCP(=O)(N[C@@H](C)C(=O)OC(C)C)N[C@@H](C)C(=O)OC(C)C [Example 16] | 870 nM
9900 nM | 2330 nM | 7600 nM | 5400 nM | 24000 nM | 1280 nM | 9000 nM | CCCOc1nc(N)nc2c1ncn2CCOCP(=O)(N[C@H](C)C(=O)OC)N[C@H](C)C(=O)OC [Example 18] | 9100 nM
26 nM | 4 nM | 33 nM | 13 nM | 2370 nM | 2 nM | 23 nM | CCCCOC(=O)[C@H](C)NP(=O)(COCCn1cnc2c(OC)nc(N)nc21)N[C@@H](C)C(=O)OCCCC [Example 27] | 53 nM
736 nM | 28 nM | 573 nM | 381 nM | > 10000 nM | 47 nM | 859 nM | CCOC(=O)[C@H](C)NP(=O)(COCCn1cnc2c(OC)nc(N)nc21)N[C@@H](C)C(=O)OCC [Example 28] | 380 nM
387 nM | 32 nM | 1110 nM | 325 nM | > 10000 nM | 29 nM | 988 nM | COc1nc(N)nc2c1ncn2CCOCP(=O)(N[C@@H](C)C(=O)OC(C)C)N[C@@H](C)C(=O)OC(C)C [Example 29] | 378 nM
11000 nM | 2620 nM | > 10000 nM | 8000 nM | > 10000 nM | 1490 nM | 22000 nM | COC(=O)[C@@H](C)NP(=O)(COCCn1cnc2c(OC)nc(N)nc21)N[C@H](C)C(=O)OC [Example 32] | 6600 nM
762 nM | 19 nM | 423 nM | 190 nM | > 10000 nM | 18 nM | 652 nM | CCOC(=O)[C@H](C)NP(=O)(COCCn1cnc2c(OC(C)C)nc(N)nc21)N[C@@H](C)C(=O)OCC [Example 33] | 243 nM
41 nM | 5 nM | 195 nM | 21 nM | 2650 nM | 4 nM | 55 nM | CCCCOC(=O)[C@H](C)NP(=O)(COCCn1cnc2c(OC(C)C)nc(N)nc21)N[C@@H](C)C(=O)OCCCC [Example 34] | 31 nM
187 nM | 14 nM | 145 nM | 28 nM | 8900 nM | 5 nM | 140 nM | CCCCOc1nc(N)nc2c1ncn2CCOCP(=O)(N[C@@H](C)C(=O)OCC)N[C@@H](C)C(=O)OCC [Example 35] | 46 nM
458 nM | 31 nM | 292 nM | 146 nM | > 10000 nM | 23 nM | 509 nM | CCOC(=O)[C@H](C)NP(=O)(COCCn1cnc2c(OCC)nc(N)nc21)N[C@@H](C)C(=O)OCC [Example 37] | 198 nM
17 nM | 2 nM | 53 nM | 2 nM | 799 nM | 1 nM | 12 nM | CCCCOC(=O)[C@H](C)NP(=O)(COCCn1cnc2c(OCC)nc(N)nc21)N[C@@H](C)C(=O)OCCCC [Example 38] | 20 nM
3190 nM | 198 nM | 2650 nM | 141 nM | > 10000 nM | 102 nM | 1480 nM | CCOC(=O)[C@H](C)NP(=O)(COCCn1cnc2c(OC3CCCCC3)nc(N)nc21)N[C@@H](C)C(=O)OCC [Example 39] | 697 nM
